From patent US5696151A, “Compounds useful for the inhibition of the replication of HIV-1 and HIV-1 mutants” (priority 1995, dated 1997)
Converted amounts (≈) assume the structure as drawn. Read-outs that look alike come from different tables or passages of the source.

Experiments:
HIV-1(IIIB) = test: Inhibition of HIV-1 induced syncytium formation in CEM cells, wild type; type: cell-based; details: WT = HIV-1(IIIB), day 4, averages of 2 to 3 independent experiments; for Antiviral Activity of Comparative Compounds EC50, WT: Table 2B; for EC50: Human immunodeficiency virus 1, IIIB, CCRF-CEM, 96 h, Table 2A, read-out: Antiviral Activity EC50, WT
In short: (§1)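 Syncytium inhibition assay in CEM cells infected with HIV-1(IIIB) or RT mutants, compound tested in 5-fold dilutions, scored by microscopy on day 4.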

HIV-1/100-Ile = test: Inhibition of HIV-1 induced syncytium formation in CEM cells, RT mutant 100-Ile; type: cell-based; details: day 4, averages of 2 to 3 independent experiments; for Antiviral Activity of Comparative Compounds EC50, 100-Ile: Table 2B; for EC50: Human immunodeficiency virus 1, CCRF-CEM, 96 h, Table 2A, read-out: Antiviral Activity EC50, 100-Ile
In short: as §1

HIV-1/106-Ala = test: Inhibition of HIV-1 induced syncytium formation in CEM cells, RT mutant 106-Ala; type: cell-based; details: day 4, averages of 2 to 3 independent experiments; for Antiviral Activity of Comparative Compounds EC50, 106-Ala: Table 2B; for EC50: Human immunodeficiency virus 1, CCRF-CEM, 96 h, Table 2A, read-out: Antiviral Activity EC50, 106-Ala
In short: as §1

HIV-1/Lys-138 = test: Inhibition of HIV-1 induced syncytium formation in CEM cells, RT mutant 138-Lys; type: cell-based; details: day 4, averages of 2 to 3 independent experiments; for Antiviral Activity of Comparative Compounds EC50, 138-Lys: Table 2B; for EC50: Human immunodeficiency virus 1, CCRF-CEM, 96 h, Table 2A, read-out: Antiviral Activity EC50, 138-Lys
In short: as §1

HIV-1/181-Cys = test: Inhibition of HIV-1 induced syncytium formation in CEM cells, RT mutant 181-Cys; type: cell-based; details: day 4, averages of 2 to 3 independent experiments; for Antiviral Activity of Comparative Compounds EC50, 181-Cys: Table 2B; for EC50: Human immunodeficiency virus 1, CCRF-CEM, 96 h, Table 2A, read-out: Antiviral Activity EC50, 181-Cys
In short: as §1

CEM cells = test: in vitro; type: cell-based; details: Table 2B; CEM cell proliferation; averages of 2 to 3 independent experiments
In short: (§2)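 In CEM cells, the cytostatic value is the compound concentration giving 50% inhibition of cell proliferation. Parallel work used HIV-1(IIIB) and culture-selected resistant strains Lys-138, 181-Cys, 188-His and 188-Leu.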

HIV-1/103-Asn = test: Inhibition of HIV-1 induced syncytium formation in CEM cells, RT mutant 103-Asn; type: cell-based; details: Human immunodeficiency virus 1, CCRF-CEM, 96 h, day 4, averages of 2 to 3 independent experiments
Source text: (§3) CEM cells were obtained from the American Tissue Cell Culture Collection (Rockville, Md.). HIV-1(IIIB) was originally obtained from the culture supernatant of persistently HIV-1-infected H9 cells and was provided by R. C. Gallo and M. Popovic (National Cancer Institute, National Institutes of Health, Bethesda, Md.). […] 67: 5353-5359 (1993); HIV-1/Lys-138 ("Lys-138") was selected for resistance against TSAO-m^3T as described in Balzarini et al, Virology 192: 246-253 (1993) and Balzarini et al, Proc. Nat. Acad. Sci. USA 90: 6952-6956 (1993); HIV-1/181-Cys ("181-Cys") was selected for resistance against pyridinone L-697,661 as described in Balzarini et al, Virology 192: 246-253 (1993); and HIV-1/188-His ("188-His") was selected for resistance against HEPT as described in Balzarini et al, Mol. Pharmocol. 44: 694-701 (1993). 188-His was then further converted to HIV-1/188-Leu "188-Leu") upon further passage in cell culture in the absence of the HEPT.
(§4) CEM cells were suspended at ≈300,000 cells per ml of culture medium and infected with approximately 100 CCID50 (CCID50 being the 50% cell culture infective dose) of HIV-1(IIIB) or one of the HIV-1 RT mutant strains described above. Then 100 μl of the infected cell suspensions was added to 200 μl microtiter plate wells containing 100 μl of appropriate serial (5-fold) dilutions of the test compounds. The inhibitory effect of the test compounds on HIV-1 induced syncytium formation in CEM cells was examined microscopically on day 4 post infection.

HIV-1/188-Leu = test: Inhibition of HIV-1 induced syncytium formation in CEM cells, RT mutant 188-Leu; type: cell-based; details: Human immunodeficiency virus 1, CCRF-CEM, 96 h, day 4, averages of 2 to 3 independent experiments
Source text: as §3, §4

in vitro = type: cell-based; details: human, cem cells, CC50 (50% cytostatic concentration), Table 2A; CEM cell proliferation; averages of 2 to 3 independent experiments
In short: as §2

HIV-1 RT mutant strains = test: Antiviral activity in CEM cells against the HIV-1 RT mutant strains; type: cell-based; details: Human immunodeficiency virus 1, CCRF-CEM, read-out: EC50 values against the HIV-1 RT mutant strains
Source text: as §3
as §4, with “The inhibitory effect of the test compounds on HIV-1 induced syncytium formation in CEM cells was examined microscopically on day 4 post infection.” left out

[1] = tested on: HIV-1(IIIB) and the HIV-1 RT mutants; test: Antiviral activity in CEM cells against wild type and RT mutants; type: cell-based
Source text: as §3
as §4, with “The inhibitory effect of the test compounds on HIV-1 induced syncytium formation in CEM cells was examined microscopically on day 4 post infection.” left out

[2] = tested on: HIV-1 strains containing the 100 Leu →Ile mutation in their RT; details: background, Balzarini I and II; cited from earlier work
[3] = tested on: 181 Tyr →Cys mutation in the RT of HIV-1 strains; details: background, Balzarini I and II; cited from earlier work
[4] = Table 2A, read-out: Antiviral Activity EC50, 103-Asn
[5] = Table 2A, read-out: Antiviral Activity EC50, 188-Leu

Cc1occc1C(=S)Nc1ccc(Cl)c(C=NOC(C)(C)C)c1 [Compound 114]
Antiviral Activity of Comparative Compounds EC50, WT (HIV-1(IIIB)): 0.05 µg/mL | Antiviral Activity of Comparative Compounds EC50, 100-Ile (HIV-1/100-Ile): 0.085 µg/mL | Antiviral Activity of Comparative Compounds EC50, 106-Ala (HIV-1/106-Ala): 0.13 µg/mL | Antiviral Activity of Comparative Compounds EC50, 138-Lys (HIV-1/Lys-138): 0.075 µg/mL | Antiviral Activity of Comparative Compounds EC50, 181-Cys (HIV-1/181-Cys): 0.075 µg/mL | CC50 (50% cytostatic concentration) (CEM cells): 5.8 µg/mL (≈ 16.5 µM)

CC(C)=CCOc1cc(NC(=S)c2ccoc2C)ccc1Cl [Compound IA, N-[4-chloro-3-(3-methyl-2-butenyloxy)phenyl]-2-methyl-3-furancarbothioamide]
EC50 (HIV-1(IIIB)): 0.003 µg/mL (≈ 0.00893 µM) | EC50 (HIV-1/100-Ile): 0.003 µg/mL (≈ 0.00893 µM) | EC50 (HIV-1/103-Asn; [4]): 0.006 µg/mL (≈ 0.0179 µM) | EC50 (HIV-1/106-Ala): 0.005 µg/mL (≈ 0.0149 µM) | EC50 (HIV-1/Lys-138): 0.005 µg/mL (≈ 0.0149 µM) | EC50 (HIV-1/181-Cys): 0.011 µg/mL (≈ 0.0328 µM) | EC50 (HIV-1/188-Leu; [5]): 0.5 µg/mL (≈ 1.49 µM) | CC50 (in vitro): > 100 µg/mL | EC50 (HIV-1 RT mutant strains): 0.003 to 0.011 µg/mL (≈ 0.00893 to 0.0328 µM) | EC50 values against HIV-1(IIIB) and the HIV-1 RT mutants (in words) [1]: extremely low, and virtually similar EC50 values

CC(C)=CCN1Cc2cc(Cl)cc3[nH]c(=S)n(c23)C[C@@H]1C [TIBO R82913]
resistance of 100 Leu →Ile RT mutant strains [2]: resistant

CC(C)=CCN1Cc2cccc3[nH]c(=S)n(c23)C[C@@H]1C [Compound R82150]
resistance of 100 Leu →Ile RT mutant strains [2]: resistant

Cc1ccnc2c1NC(=O)c1cccnc1N2C1CC1 [nevirapine]
resistance of 181 Tyr →Cys RT mutant viruses [3]: resistant

CC(C)=CCOc1cc(NC(=S)c2ccsc2C)ccc1Cl [Compound IB, N-[4-chloro-3-(3-methyl-2-butenyloxy)-phenyl]-2-methyl-3thiophenecarbothioamide]
EC50 (HIV-1(IIIB)): 0.003 µg/mL (≈ 0.00852 µM) | EC50 (HIV-1/100-Ile): 0.004 µg/mL (≈ 0.0114 µM) | EC50 (HIV-1/103-Asn; [4]): 0.004 µg/mL (≈ 0.0114 µM) | EC50 (HIV-1/106-Ala): 0.005 µg/mL (≈ 0.0142 µM) | EC50 (HIV-1/Lys-138): 0.005 µg/mL (≈ 0.0142 µM) | EC50 (HIV-1/181-Cys): 0.005 µg/mL (≈ 0.0142 µM) | EC50 (HIV-1/188-Leu; [5]): 0.6 µg/mL (≈ 1.7 µM) | CC50 (in vitro): 5.8 µg/mL (≈ 16.5 µM) | EC50 (HIV-1 RT mutant strains): 0.003 to 0.011 µg/mL (≈ 0.00852 to 0.0313 µM) | EC50 values against HIV-1(IIIB) and the HIV-1 RT mutants (in words) [1]: extremely low, and virtually similar EC50 values

Cc1sccc1C(=O)Nc1ccc(Cl)c(C(=O)OC2CCCCC2)c1 [Compound 58]
Antiviral Activity of Comparative Compounds EC50, WT (HIV-1(IIIB)): 0.19 µg/mL | Antiviral Activity of Comparative Compounds EC50, 100-Ile (HIV-1/100-Ile): 5.5 µg/mL | Antiviral Activity of Comparative Compounds EC50, 106-Ala (HIV-1/106-Ala): 7.0 µg/mL | Antiviral Activity of Comparative Compounds EC50, 138-Lys (HIV-1/Lys-138): 6.0 µg/mL | Antiviral Activity of Comparative Compounds EC50, 181-Cys (HIV-1/181-Cys): 5.0 µg/mL | CC50 (50% cytostatic concentration) (CEM cells): 6.5 µg/mL (≈ 17.2 µM)

Cc1sccc1C(=S)Nc1ccc(Cl)c(C(=O)OC2CCCCC2)c1 [Compound 9]
Antiviral Activity of Comparative Compounds EC50, WT (HIV-1(IIIB)): 0.0032 µg/mL | Antiviral Activity of Comparative Compounds EC50, 100-Ile (HIV-1/100-Ile): 0.057 µg/mL | EC50 (HIV-1/103-Asn; Table 2B, read-out: Antiviral Activity of Comparative Compounds EC50, 103-Asn): 0.13 µg/mL (≈ 0.33 µM) | Antiviral Activity of Comparative Compounds EC50, 106-Ala (HIV-1/106-Ala): 0.03 µg/mL | Antiviral Activity of Comparative Compounds EC50, 138-Lys (HIV-1/Lys-138): 0.02 µg/mL | Antiviral Activity of Comparative Compounds EC50, 181-Cys (HIV-1/181-Cys): 0.032 µg/mL | EC50 (HIV-1/188-Leu; Table 2B, read-out: Antiviral Activity of Comparative Compounds EC50, 188-Leu): ≥ 2 µg/mL | CC50 (50% cytostatic concentration) (CEM cells): 6.0 µg/mL (≈ 15.2 µM)
